From patent publication US20250074911A1, “MACROCYCLIC BTK INHIBITORS” (Crossfire Oncology Holding B.V., priority 2021, published 2025) come the findings set out here.

For orientation: IC50 means the point on the concentration scale where inhibition reaches its midpoint. A word on the Kd: it is the equilibrium constant for the complex coming apart. A low value points to a tighter complex.

The target of one assay is BTK T474I (Homo sapiens (Human), UniProt Q06187, T474I). The assay is described as follows: Binding kinetics measurements (Surface Plasmon Resonance) on BTK T474I. The following applies: for Tau (h) BTK T474I (Act): target residence time, SPR; for Kd: binding affinity by Surface Plasmon Resonance (SPR). The protocol:
(§1) Binding kinetics measurements on wt-BTK, BTK […], BTK […], BTK […] and BTK […] (Surface Plasmon Resonance) Streptavidin-coated chips (Cat. No. BR100531), disposables and maintenance kits for Biacore were purchased from Cytiva (Eindhoven, The Netherlands). […] Remaining streptavidin was blocked with biocytin. Immobilization was performed at 4° C. Subsequent assay steps were conducted at 22° C. After changing buffer to Biacore buffer with 1% (v/v) dimethylsulfoxide (DMSO), a pre-run was performed for a period of at least 30 min at a flow rate of 30 μl/min to obtain a stable surface. The kinetic constants of the compounds were determined with single cycle kinetics with five consecutive injections with an increasing compound concentration with ranges of 3.16-316 nM. […] To circumvent problems of mass transport limitation, a flow rate of 30 μl/min was used. A blank run with the same conditions was performed before the compound was injected. The SPR sensorgrams were analyzed with Biacore Evaluation Software by using a method of double referencing. First the reference channel was subtracted from the channel containing immobilized protein. Subsequently, the reference curve obtained with buffer injections was subtracted. […] Compounds that bound according to an induced fit model were fitted with a two-state reaction model. The kinetic constants (ka, […], KD) of duplicates were geometrically averaged. […] Target residence for an induced fit model was calculated as described (Tummino and Copeland, 2008).

Assay [1] deals with wt-TMD8 diffuse large B-cell lymphoma cells. The experiment in a line: Cell proliferation assay wt-TMD8 (ATPlite, 120 hours). In kind it is cell-based. The note with it: B-cell; wt-TMD8 cells, 120 hours, ATPlite; read-out: IC50 wt-TMD8. The gist of the method:
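Readout is percentage growth from ATPlite 1Step luminescence after 5 days (120 h) compound treatment of wt-TMD8 lymphoma cells (1600/well, RPMI-1640 + 10% FBS). Time-zero signal separates growth inhibition from cell kill; 0.3% DMSO wells without compound define maximal growth.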
On the technique in general: In ATP-based viability assays light output follows the ATP content of the culture.

The subject of assay [2] is wt-REC-1 mantle cell lymphoma cells. The assay is described as follows: Cell proliferation assay wt-REC-1 (ATPlite, 72 hours). In kind it is cell-based. The following applies: 72 h; read-out: IC50 wt-REC-1. Put shortly: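 Luminescent viability read over 72 h, start-of-incubation signal recorded separately to separate growth from cell death. Percentage growth referenced to compound-free 0.3% DMSO wells; IC50 from 4-parameter logistic fit.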

The next assay deals with REC-1 T474I cell lines. The assay is described as follows: Cell proliferation assay REC-1 BTK T474I knock-in cells (ATPlite, 72 hours). In kind it is cell-based. The following applies: Homo sapiens, Rec1; 72 hours; read-out: IC50 REC-1 T474I. Put shortly:
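REC-1 cells carrying CRISPR knock-in mutant BTK, single-cell cloned and sequence-confirmed, were exposed to compound for 72 h and read by ATPlite luminescence. Percentage growth was calculated against the signal at the start of incubation and against untreated 0.3% DMSO wells as maximum growth.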

Assay [3] deals with full-length BTK C481S enzyme (Homo sapiens (Human), UniProt Q06187, C481S). The experiment in a line: Biochemical kinase assay BTK C481S (IMAP). Put shortly:
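IC50 values come from IMAP fluorescence polarization after quenching with progressive binding solution. The reaction ran 2 h at room temperature in the dark with 1.2 nM full-length C481S enzyme, 7 μM ATP and 50 nM fluorescein-labelled MBP-derived peptide, following a 1 h dark pre-incubation of compound with enzyme.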

The next assay deals with wt-BTK (Homo sapiens (Human), UniProt Q06187). The experiment in a line: Binding kinetics measurements (Surface Plasmon Resonance) on wt-BTK. The note with it: for Kd: binding affinity by Surface Plasmon Resonance (SPR); for Tau (h) wt-BTK (Act): target residence time, SPR. The protocol:
as §1

Assay [4] addresses full-length wt-BTK enzyme (Homo sapiens (Human), UniProt Q06187). The experiment in a line: Biochemical kinase assay wt-BTK (IMAP). The gist of the method:
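Compound and enzyme (final 1.2 nM) were pre-incubated for 1 h at RT, after which the reaction was started with 4 μM ATP plus 50 nM fluorescein-MBP substrate peptide. After 2 h in the dark, the IMAP progressive binding reagent stopped the reaction, and phosphorylation was read by fluorescence polarization.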

BTK T474I, sequence (Q06187 whole entry T474I): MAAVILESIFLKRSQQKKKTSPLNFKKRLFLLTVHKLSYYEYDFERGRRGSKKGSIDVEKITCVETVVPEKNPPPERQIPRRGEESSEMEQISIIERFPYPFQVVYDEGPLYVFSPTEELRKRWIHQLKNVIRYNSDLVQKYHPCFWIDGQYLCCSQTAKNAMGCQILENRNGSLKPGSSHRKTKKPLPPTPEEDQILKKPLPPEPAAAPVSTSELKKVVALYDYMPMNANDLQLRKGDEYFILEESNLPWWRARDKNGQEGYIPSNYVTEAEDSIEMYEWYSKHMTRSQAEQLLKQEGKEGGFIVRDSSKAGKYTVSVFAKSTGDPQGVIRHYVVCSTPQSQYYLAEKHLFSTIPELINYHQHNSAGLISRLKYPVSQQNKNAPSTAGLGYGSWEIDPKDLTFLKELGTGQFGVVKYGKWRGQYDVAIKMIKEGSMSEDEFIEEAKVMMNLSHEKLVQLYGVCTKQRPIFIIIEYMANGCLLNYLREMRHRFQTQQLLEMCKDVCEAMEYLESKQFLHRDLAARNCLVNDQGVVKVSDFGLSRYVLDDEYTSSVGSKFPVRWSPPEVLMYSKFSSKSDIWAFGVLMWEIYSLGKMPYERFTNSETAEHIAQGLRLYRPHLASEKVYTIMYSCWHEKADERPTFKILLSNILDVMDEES
full-length wt-BTK enzyme, sequence (Q06187 whole entry): as the sequence (Q06187 whole entry T474I) above, with I474T counted along it
wt-BTK, sequence (Q06187 whole entry): as the sequence (Q06187 whole entry T474I) above, with I474T counted along it
full-length BTK C481S enzyme, sequence (Q06187 whole entry C481S): as the sequence (Q06187 whole entry T474I) above, with I474T, C481S counted along it

For the compound `COc1cc(-c2nn3c4c(cnc(N)c24)/C=C/CCOCCC(=O)N[C@@H]2CCC[C@@H]3C2)ccc1C(=O)Nc1cc(C(F)(F)F)ccn1` [Example 195], the “Tau (h) BTK T474I (Act)” value at BTK T474I is reported as 0.73 h. For the same compound, the concentration for half-maximal inhibition (IC50) in assay [1] is below 0.1 µM; in assay [2], below 0.1 µM; in the assay with REC-1 T474I cell lines, below 0.1 µM; in assay [3] it was below 0.005 µM; in assay [4], below 0.005 µM. At wt-BTK, this compound came in with a Kd below 0.005 µM. Also, at wt-BTK, the “Tau (h) wt-BTK (Act)” value stood at 3.73 h.
Regarding `N#Cc1ccnc(NC(=O)c2ccc(-c3nn4c5c(cnc(N)c35)/C=C/CCN3CC[C@H]3C(=O)N[C@@H]3CC[C@@H]4C3)cc2)c1` [Example 186], the “Tau (h) BTK T474I (Act)” value on BTK T474I is given as 0.93 h. Moreover, the IC50 was below 0.1 µM in assay [1]; below 0.1 µM in assay [2]; below 0.1 µM in the assay with REC-1 T474I cell lines; below 0.005 µM in assay [3]; below 0.005 µM in assay [4]. Moreover, the “Tau (h) wt-BTK (Act)” value at wt-BTK is recorded as above 24 h.
`Nc1ncc2c3c1c(-c1ccc(C(=O)Nc4cc(F)ccn4)cc1)nn3[C@@H]1CCC[C@H](C1)NC(=O)CCOC/C=C/2` [Example 189]: the “Tau (h) BTK T474I (Act)” value on BTK T474I was determined as 1.56 h. In addition, the IC50 in assay [1] was below 0.1 µM; in assay [2] it was 1 to 10 µM; in the assay on REC-1 T474I cell lines, 0.5 to 10 µM; in assay [3] it was below 0.005 µM; in assay [4] it was below 0.005 µM. The Kd on wt-BTK was below 0.005 µM. The “Tau (h) wt-BTK (Act)” value at wt-BTK is recorded as 4.17 h.
Take `Nc1ncc2c3c1c(-c1ccc(C(=O)Nc4cc(F)ccn4)cc1)nn3[C@@H]1CCC[C@H](C1)NC(=O)CCOCC/C=C/2` [Example 193]: the dissociation constant Kd at BTK T474I was below 0.002 µM; on wt-BTK, below 0.005 µM. Besides, at BTK T474I, the “Tau (h) BTK T474I (Act)” value is given as above 24 h. In addition, the IC50 is below 0.1 µM in assay [1]; below 0.1 µM in assay [2]; below 0.1 µM in the assay on REC-1 T474I cell lines; below 0.005 µM in assay [3]; below 0.005 µM in assay [4]. Besides, the “Tau (h) wt-BTK (Act)” value on wt-BTK is recorded as 6.70 h.
For `Nc1ncc2n3c(nc(-c4ccc(C(=O)Nc5cc(OC(F)F)ccn5)cc4)c13)[C@@H]1CC[C@H](C1)NC(=O)CCOCC/C=C/2` [Example 224], at BTK T474I, the “Tau (h) BTK T474I (Act)” value turned out to be 1.60 h. The concentration for half-maximal inhibition (IC50) was below 0.1 µM in assay [1]; below 0.1 µM in assay [2]; below 0.1 µM in the assay on REC-1 T474I cell lines; below 0.005 µM in assay [3]; below 0.005 µM in assay [4]. Moreover, the “Tau (h) wt-BTK (Act)” value at wt-BTK stood at 3.69 h.
Regarding `Cc1ccnc(NC(=O)c2ccc(-c3nc4n5c(cnc(N)c35)/C=C/CCOCCC(=O)N[C@@H]3CC[C@@H]4C3)cc2)c1` [Example 215], the “Tau (h) BTK T474I (Act)” value on BTK T474I was found to be 1.18 h. The IC50 is below 0.1 µM in assay [1]; below 0.1 µM in assay [2]; below 0.1 µM with REC-1 T474I cell lines; below 0.005 µM in assay [3]; below 0.005 µM in assay [4]. Also, the “Tau (h) wt-BTK (Act)” value on wt-BTK is 9.76 h.
For `COc1ccc(F)cc1C(=O)NCc1ccc(-c2nc3n4c(cnc(N)c24)/C=C/CCOCCC(=O)N[C@@H]2CC[C@@H]3C2)cc1` [Example 213], the Kd at BTK T474I was below 0.002 µM; on wt-BTK it was below 0.005 µM. Moreover, the “Tau (h) BTK T474I (Act)” value at BTK T474I is given as 0.93 h. For the same compound, the IC50 is below 0.1 µM in assay [1]; below 0.1 µM in assay [2]; below 0.1 µM with REC-1 T474I cell lines; below 0.005 µM in assay [3]; below 0.005 µM in assay [4]. Further, the “Tau (h) wt-BTK (Act)” value on wt-BTK stood at 2.29 h.
In the case of `Cn1nc(NC(=O)c2ccc(-c3nc4n5c(cnc(N)c35)/C=C/CCOCCC(=O)N[C@@H]3CC[C@@H]4C3)cc2)cc1C(F)(F)F` [Example 216], the “Tau (h) BTK T474I (Act)” value on BTK T474I is on record as 1.28 h. The half-inhibitory concentration (IC50) in assay [1] is below 0.1 µM; in assay [2], below 0.1 µM; in the assay on REC-1 T474I cell lines, below 0.1 µM; in assay [3], below 0.005 µM; in assay [4], below 0.005 µM. The “Tau (h) wt-BTK (Act)” value at wt-BTK is given as 4.79 h.
